Values after ≈ are worked out from the molar mass of the structure shown.

Data set [1] is described as follows: Solubility and pH of saturated solution. It is filed as physicochemical. As to conditions: water.
A short description of data set [2]: Chemical / storage stability of tasimelteon and its suspensions. It is filed as physicochemical. As to conditions: formation of three degradation products. The procedure:
Ascorbic acid preferentially undergoes oxidation, thereby preventing oxidation of tasimelteon, but also imparts a yellow color to the suspension on storage, especially when stored at 40° C./75% RH for >3 months, which is the accelerated storage condition for products stored at room temperature (6 months of satisfactory stability is necessary at 40° C./75% RH in order to justify long-term storage at room temperature/25° C./60% RH). Because of the color change from white/off-white to yellow after 3 months storage at 40° C./75% RH, it is necessary to store the suspension at 5° C., for which the accelerated storage condition is 25° C./60% RH and up to 6 months of satisfactory stability data at this storage condition are available (i.e., color change is from white/off-white to slightly yellow).
Short-term stability studies can be undertaken under storage conditions at (1) 5±3° C., (2) 25±2° C. (at 60±5% relative humidity), and 40±2° C. (at 75±5% relative humidity) for one to three months. Under such conditions, total impurities as determined by HPLC for pharmaceutically acceptable compositions are, for example, not more than 2.0 percent by weight or not more than 0.5 percent by weight with respect to known impurities, and not more than 0.2 percent by weight with respect to unspecified impurities.

For data set [3], the system named is Smith-Magenis Syndrome (SMS). Nature of the data set: Study of efficacy of tasimelteon in disorders including SMS, once daily before bedtime. It is filed as in vivo, pediatric patients. The procedure: (§1) One common symptom of SMS is a chronically disrupted sleep pattern, which is found at all ages. In a study to determine the efficacy of tasimelteon in the treatment of disorders, including SMS, oral (20 mg capsule or 4 mg/mL suspension) and intravenous (0.4 mg/mL) formulations were administered once per day before bedtime to pediatric patients 3-17 years old.
Treatment efficacy was assessed by improvements in nighttime sleep (i.e., reduced nighttime activity interrupting the sleep period, improved sleep efficiency, reduced variability in sleep onset, reduced variability in morning awakenings, and/or improved sleep quality), reduced daytime sleepiness, reduced behavioral problems (i.e., reduced aggressive behavior, reduced temper tantrums, reduced hyperactivity, and/or reduced attention deficits).

Data set [4] in a line: Apparent clearance in the pediatric study. It is filed as in vivo, pediatric patients. As to conditions: children with body mass greater than 28 kg. The procedure:
as §1

The conditions of data set [5]: known in the art, cited from earlier work.

In data set [1], `CCC(=O)NC[C@@H]1C[C@H]1c1cccc2c1CCO2` [tasimelteon, trans-N-[[2-(2,3-dihydrobenzofuran-4-yl)cycloprop-1-yl]methyl]propanamide] gave a solubility of around 1 mg/mL (≈ 4.08 mM). Besides, in data set [2], the oxidative degradation result is listed as “susceptible to oxidative degradation”. The consistently effective dose in data set [3] (patients with body mass greater than 28 kg) is reported as 20 mg; in data set [3] (patients with body mass of 28 kg or less) it was 0.7 mg/kg. In addition, the apparent clearance entry in data set [4] is “constant and similar to that of adults”. The “solubility in organic solvents” value in data set [5] (95% ethanol, methanol, acetonitrile, ethyl acetate, isopropanol, polyethylene glycols (PEG-300 and PEG-400)) is “highly soluble”. For the same molecule, the “effect of pH on aqueous solubility” value in data set [5] is “substantially unaffected by pH”. Further, in data set [5] (saturated solution in water), the “native pH of a saturated solution in water” value is on record as 8.5. In data set [5] (water), the solubility in water result is “poorly soluble”.
Molecule `OC[C@@H](O)[C@@H](O)[C@H](O)[C@H](O)CO` [mannitol] came in with a solubility in data set [1] of around 200 mg/mL (≈ 1100 mM).

The solubility is the dissolved amount per volume that the medium holds. A low value points to a poorly soluble substance.

The values above are taken from patent publication US12447141B2, “Liquid tasimelteon formulations and methods of use thereof” (Vanda Pharmaceuticals Inc., priority 2019, dated 2025).
